Laboratory results as given in publication PMC10294832, “Investigation of Naphthyl–Polyamine Conjugates as Antimicrobials and Antibiotic Enhancers” (Antibiotics, 2023).
Values after ≈ are worked out from the molar mass of the structure shown. Values joined by “and” are separate entries in the source; they are usually repeats but may differ in a detail not shown here. Equal entries are not always repeated.

What was measured:
[1] = system: MRSA (ATCC 43300); design: method as in PMID 36982955; conditions: earlier work; cited from earlier work
[2] = system: S. aureus (ATCC 25,923 or ATCC 29213); design: method as in PMID 36982955; conditions: earlier work; cited from earlier work
[3] = system: E. coli (ATCC 25922); design: method as in PMID 36982955; conditions: earlier work; cited from earlier work
[4] = system: P. aeruginosa (ATCC 27853); design: method as in PMID 36982955; conditions: earlier work; cited from earlier work
[5] = system: E. coli; design: method as in PMID 15225864; conditions: novobiocin and erythromycin; weak effect; cited from earlier work
[6] = system: S. aureus (ATCC 25923); assay: Real-time growth inhibition curves / MIC; type: cell-based; conditions: Staphylococcus aureus, ATCC25923, 18-hour mark of real-time growth curve
Experimental: (§1) To conduct a detailed analysis of the antibacterial activity and initial assessment of the mechanism of action, analogue 20f was selected due to its strong antibacterial properties, and because it was devoid of any observed cytotoxic or hemolytic effects. To evaluate the kinetics of antibacterial activity, real-time growth inhibition curves were measured for two Gram-positive bacteria (S. aureus (ATCC 25923), MRSA (CF-Marseille)) and the Gram-negative bacterium E. coli (ATCC 25922). […] These values corresponded to the inhibitory concentrations observed at the 18-hour mark in the real-time growth inhibition curve plots.
(§2) Solutions of compound 20f at concentrations of 2, 4, and 16 µg/mL were each tested in triplicate against S. aureus (ATCC 25923), MRSA (CF-Marseille), and E. coli (ATCC 25922) following previously reported protocols.

[7] = system: E. coli (ATCC 25922); assay: Real-time growth inhibition curves / MIC; type: cell-based; conditions: Escherichia coli, ATCC25922, 18-hour mark of real-time growth curve
Experimental: as §1, §2

[8] = system: K. pneumoniae (ATCC 700603); assay: Antimicrobial MIC, K. pneumoniae; type: cell-based; conditions: Klebsiella pneumoniae, ATCC700603, mean (n = 2)
[9] = system: human red blood cells; assay: Hemolytic assay; type: cell-based; conditions: concentration at 10% hemolytic activity on human red blood cells; mean (n = 2)
Experimental: Hemolysis assays were conducted using the protocols previously reported.

[10] = system: S. aureus (ATCC 25,923 or ATCC 29213); assay: Antimicrobial MIC, S. aureus; type: cell-based, Staphylococcus aureus; conditions: Staphylococcus aureus, mean (n = 3)
In short: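 MICs for the […] bacteria came from an in-house susceptibility test run to an earlier published protocol. The yeasts were screened externally at CO-ADD, University of Queensland, under that facility's standard procedures.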

[11] = system: E. coli (ATCC 25922); assay: Antimicrobial MIC, E. coli; type: cell-based, Escherichia coli; conditions: mean (n = 2)
In short: (§3)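 E. coli and P. aeruginosa susceptibility was determined in-house following previously reported protocols. C. albicans and C. neoformans were tested by the Community for Open Antimicrobial Drug Discovery (University of Queensland) using its standard protocols. Values are MICs.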

[12] = system: MRSA (CF-Marseille); assay: Real-time growth inhibition curves / MIC; type: cell-based, methicillin-resistant Staphylococcus aureus; conditions: Staphylococcus aureus, 18-hour mark of real-time growth curve
Experimental: as §1, §2

[13] = system: E. coli (ATCC 25922); assay: Enhancement of erythromycin activity; type: cell-based, Escherichia coli; conditions: for Eryth/E.c: concentration required to restore erythromycin activity (combination MIC): erythromycin fixed at 10.9 µM (8 µg/mL), E. coli (ATCC 25922); for Eryth/E.c fold change: ratio between intrinsic MIC of test compound and combination MIC, erythromycin 10.9 µM, E. coli
Experimental: Restoring enhancer concentrations were determined using previously reported protocols.

[14] = system: MRSA (CF-Marseille); assay: Minimum bactericidal concentration test; type: cell-based, methicillin-resistant Staphylococcus aureus; conditions: Staphylococcus aureus, same value as MIC
Experimental: as §1
(§4) MBC’s were determined following previously reported protocols.

[15] = system: C. neoformans (ATCC 208821); assay: Antifungal MIC, C. neoformans; type: cell-based, Cryptococcus neoformans; conditions: Cryptococcus neoformans, ATCC208821, C. neoformans (ATCC 208821); mean (n = 2)
In short: as §3

[16] = system: P. aeruginosa (PAO1 or ATCC 27853); assay: Antimicrobial MIC, P. aeruginosa; type: cell-based; conditions: Pseudomonas aeruginosa; P. aeruginosa (PAO1 or ATCC 27853); mean (n = 3); read-out: MIC P. a
In short: as §3

[17] = system: P. aeruginosa (ATCC 27853); assay: Enhancement of doxycycline activity; type: cell-based, Pseudomonas aeruginosa; conditions: for Dox/P.a: concentration required to restore doxycycline activity (combination MIC): doxycycline fixed at 4.5 µM (2 µg/mL); for Dox/P.a: concentration required to restore doxycycline activity (combination MIC) / Concentration of test compound required to restore doxycycline activity: P. aeruginosa (ATCC 27853)
[18] = system: S. aureus (ATCC 25923); assay: Minimum bactericidal concentration test; type: cell-based; conditions: Staphylococcus aureus, ATCC25923, same value as MIC
Experimental: as §1, §4

[19] = system: E. coli (ATCC 25922); assay: Minimum bactericidal concentration test; type: cell-based; conditions: Escherichia coli, ATCC25922, same value as MIC
Experimental: as §1, §4

[20] = system: A. baumannii (ATCC 19606); assay: Antimicrobial MIC, A. baumannii; type: cell-based, Acinetobacter baumannii; conditions: Acinetobacter baumannii, ATCC19606, A. baumannii (ATCC 19606); mean (n = 2)
[21] = system: C. albicans (ATCC 90028); assay: Antifungal MIC, C. albicans; type: cell-based; conditions: Candida albicans, ATCC90028, mean (n = 2)
In short: as §3

[22] = system: MRSA (ATCC 43300); assay: Antimicrobial MIC, MRSA; type: cell-based, methicillin-resistant Staphylococcus aureus; conditions: Staphylococcus aureus, MRSA (ATCC 43300); mean (n = 2); read-out: MIC MRSA
[23] = Cytotoxicity assay; type: cell-based, human; conditions: human, HEK293 human embryonic kidney cells, concentration at 50% cytotoxicity on HEK293 cells; mean (n = 2)
Experimental: (§5) Cytotoxicity assays were conducted using the protocols previously reported.

[24] = system: HEK293 human embryonic kidney cells; assay: Cytotoxicity assay; type: cell-based; conditions: concentration at 50% cytotoxicity on HEK293 cells; mean (n = 2)
Experimental: as §5

[25] = Escherichia coli, ATCC25922, E. coli (ATCC 25922)

| SMILES | MIC MRSA [1] [µM] | MIC Staphylococcus aureus [2] [µM] | MIC Escherichia coli [3] [µM] | MIC [8] [µM] | Hemolysis HC10 [9] [µM] | MIC [10] [µM] | MIC [11, 25] [µM] | Eryth/E.c: concentration required to restore erythromycin activity (combination MIC) [13] [µM] | Eryth/E.c fold change [13] [fold] | MIC [15] [µM] | MIC [16] [µM] | Dox/P.a: concentration required to restore doxycycline activity (combination MIC) [17] [µM] | MIC [20] [µM] | MIC [21] [µM] | MIC [22] [µM] | IC50 [23] [µM] | also measured |
| --- | --- | --- | --- | --- | --- | --- | --- | --- | --- | --- | --- | --- | --- | --- | --- | --- | --- |
| O=C(CC(c1ccccc1)(c1ccccc1)c1ccccc1)NCCCNCCCCCCCCNCCCNC(=O)CC(c1ccccc1)(c1ccccc1)c1ccccc1 [Compound 7] | ≤ 0.24 | 3.13 (≈ 2.59 µg/mL) | 7.6 (≈ 6.29 µg/mL) |  |  |  |  |  |  |  |  |  |  |  |  |  |  |
| O=C(CC(c1ccccc1)c1ccccc1)NCCCNCCCCCCCCNCCCNC(=O)CC(c1ccccc1)c1ccccc1 [Compound 6] | ≤ 0.28 | 3.13 (≈ 2.11 µg/mL) | 2.2 (≈ 1.48 µg/mL) |  |  |  |  |  |  |  |  |  |  |  |  |  | MIC in combination, doxycycline vs. P. aeruginosa [4]: 12.5 µM; fold increase, doxycycline vs. P. aeruginosa [4]: 4 fold |
| NCCCNCCCCNCCCNC(=O)Cc1cccc2ccccc12 [Compound 22, naphthylacetylspermine] |  |  |  |  |  |  |  |  |  |  |  |  |  |  |  |  | doses rendering E. coli sensitive to hydrophobic antibiotics [5]: 64 to 128 µg/mL |
| O=C(CCC(=O)Nc1ccc2ccccc2c1)NCCCNCCCCCCCCCCCCNCCCNC(=O)CCC(=O)Nc1ccc2ccccc2c1.O=C(O)C(F)(F)F.O=C(O)C(F)(F)F [Compound 20f, N^1,N^12-Bis(3-(4-(naphthalen-2-ylamino)-4-oxobutanamido)propyl)dodecane-1,12-diaminium 2,2,2-trifluoroacetate] |  |  |  | > 32 | >32.2 | 3.12 | 6.3 to 12.5 | 3.15 | 2 | ≤ 0.25 | > 100 | 12.6 | > 32 | > 32 | ≤ 0.25 | > 32.2 | MIC [6]: 3.15 µM and 3.13 µg/mL; MIC [7]: 6.29 µM and 6.25 µg/mL; MIC ([11]; E. coli (ATCC 25922)): 6.3 µM; MIC [12]: 3.15 µM and 3.13 µg/mL; MBC [14]: 3.13 µg/mL and 3.15 µM; Dox/P.a fold change ([17]; ratio between intrinsic MIC of test compound and combination MIC, doxycycline 4.5 µM, P. aeruginosa): > 8 fold; MBC [18]: 3.15 µM and 3.13 µg/mL; MBC [19]: 6.29 µM and 6.25 µg/mL |
| O=C(NCCCNCCCCNCCCNC(=O)c1ccc2ccccc2c1)c1ccc2ccccc2c1.O=C(O)C(F)(F)F.O=C(O)C(F)(F)F [Compound 19a, N^1,N^4-Bis(3-(2-naphthamido)propyl)butane-1,4-diaminium 2,2,2-trifluoroacetate] |  |  |  | > 43.3 | >43.3 | 34 | 271 | 4.2 | 64 | 21.7 | 677 | 16.9 | > 43.3 | > 43.3 | 43.3 | 26 | Concentration of test compound required to restore doxycycline activity ([17]; doxycycline concentration 2 µg/mL): 16.9 µM; Concentration of test compound required to restore doxycycline activity ([17]; doxycycline concentration 4 µg/mL): 8.5 µM; Concentration of test compound required to restore doxycycline activity ([17]; doxycycline concentration 6 µg/mL): 8.5 µM; Concentration of test compound required to restore doxycycline activity ([17]; doxycycline concentration 8 µg/mL): 4.2 µM; melting point: 132 to 135 °C; IC50 [24]: 26.4 µM |
